Reference: a compilation of properties of binary mixtures (doi:10.1039/b303735e)

Test: xn = mol fraction of the nth substance listed
Conditions: 298.15 K, 101.3 kPa

CCCC[n+]1ccn(C)c1.F[B-](F)(F)F + CC#N
Conditions | viscosity [mPa·s]
x2 = 0 | 110
x2 = 0.0982 | 70.9
x2 = 0.2265 | 40.3
x2 = 0.3047 | 27.7
x2 = 0.4554 | 13.2
x2 = 0.5059 | 10.22
x2 = 0.5469 | 8.25
x2 = 0.6005 | 6.07
x2 = 0.6441 | 4.58
x2 = 0.6973 | 3.34
x2 = 0.9513 | 0.593

CCCC[n+]1ccn(C)c1.F[B-](F)(F)F + CCC(C)=O
Conditions | viscosity [mPa·s]
x2 = 0 | 110

CC#N + CCCC[n+]1ccn(C)c1.F[B-](F)(F)F
Conditions | viscosity [mPa·s]
x1 = 1 | 0.341

CCC(C)=O + CCCC[n+]1ccn(C)c1.F[B-](F)(F)F
Conditions | viscosity [mPa·s]
x1 = 0.2004 | 42.2
x1 = 0.3969 | 15.2
x1 = 0.4495 | 11.97
x1 = 0.5 | 9.32
x1 = 0.5521 | 7.13
x1 = 0.6062 | 5.38
x1 = 0.6545 | 4.1
x1 = 0.8137 | 1.55
x1 = 0.8974 | 0.847
x1 = 0.9502 | 0.564
x1 = 1 | 0.373

ClCCl + CCCC[n+]1ccn(C)c1.F[B-](F)(F)F
Conditions | viscosity [mPa·s]
x1 = 0.199 | 37.2
x1 = 0.2854 | 26.3
x1 = 0.3985 | 17
x1 = 0.5452 | 10.05
x1 = 0.5958 | 7.69
x1 = 0.6471 | 5.92
x1 = 0.6958 | 4.6
x1 = 0.8019 | 2.59
x1 = 0.9015 | 1.12
x1 = 0.9477 | 0.715
x1 = 1 | 0.401

CCCC[n+]1ccn(C)c1.F[B-](F)(F)F + CN(C)C=O
Conditions | viscosity [mPa·s]
x2 = 0 | 110
x2 = 0.2041 | 52.2
x2 = 0.3024 | 32.9
x2 = 0.4061 | 20.8
x2 = 0.4408 | 17.6
x2 = 0.5052 | 12.7
x2 = 0.5459 | 11
x2 = 0.6014 | 7.8
x2 = 0.665 | 6.4
x2 = 0.701 | 5.04
x2 = 0.8008 | 2.91
x2 = 0.9005 | 1.6
x2 = 0.947 | 1.19

CCCC[n+]1ccn(C)c1.F[B-](F)(F)F + ClCCl
Conditions | viscosity [mPa·s]
x2 = 0 | 110
